# Legend:
# [1] = molecular target: Protein arginine deiminase 4 (PAD4) (Homo sapiens, UniProt Q9UM07); experiment: PAD4 ammonia release assay; type: biochemical; conditions: PAD4 ammonia release assay, BAEE substrate, 60 min at RT; read-out: Average IC50 Abs
# How it was run: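 Ammonia release from BAEE substrate (2× mix 600 μM) was measured after 60 min at RT, following 15 min enzyme–compound preincubation (PAD4 2× 20 nM; pH 8.0 HEPES, 2 mM CaCl2, TCEP; 1.25% DMSO). Detection used OPA/DTT/EDTA for 120 min. % inhibition was taken versus reference-compound and DMSO controls; IC50 by four-parameter logistic fit.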
# [2] = test system: Citrullinated Histone H3 in dHL-60 cells (differentiated HL-60); experiment: dHL-60 Cit-H3 ELISA assay; type: cell-based, human; conditions: Homo sapiens, HL-60, 3 h, stimulation with 25 μM A23187 for 3 h, read-out: Average IC50 Abs
# How it was run: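 HL-60 cells differentiated 72 h with DMF, plated at 1×10^5/well, pretreated 30 min with compound (8-point 3-fold series, 0.2% DMSO), then stimulated 3 h at 37 °C with 25 μM A23187 plus S7 nuclease. Supernatant citrullinated H3 quantified by HRP ELISA at 450 nm; IC50 by four-parameter fit.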
# Sequence of Protein arginine deiminase 4 (PAD4) (Q9UM07 whole entry): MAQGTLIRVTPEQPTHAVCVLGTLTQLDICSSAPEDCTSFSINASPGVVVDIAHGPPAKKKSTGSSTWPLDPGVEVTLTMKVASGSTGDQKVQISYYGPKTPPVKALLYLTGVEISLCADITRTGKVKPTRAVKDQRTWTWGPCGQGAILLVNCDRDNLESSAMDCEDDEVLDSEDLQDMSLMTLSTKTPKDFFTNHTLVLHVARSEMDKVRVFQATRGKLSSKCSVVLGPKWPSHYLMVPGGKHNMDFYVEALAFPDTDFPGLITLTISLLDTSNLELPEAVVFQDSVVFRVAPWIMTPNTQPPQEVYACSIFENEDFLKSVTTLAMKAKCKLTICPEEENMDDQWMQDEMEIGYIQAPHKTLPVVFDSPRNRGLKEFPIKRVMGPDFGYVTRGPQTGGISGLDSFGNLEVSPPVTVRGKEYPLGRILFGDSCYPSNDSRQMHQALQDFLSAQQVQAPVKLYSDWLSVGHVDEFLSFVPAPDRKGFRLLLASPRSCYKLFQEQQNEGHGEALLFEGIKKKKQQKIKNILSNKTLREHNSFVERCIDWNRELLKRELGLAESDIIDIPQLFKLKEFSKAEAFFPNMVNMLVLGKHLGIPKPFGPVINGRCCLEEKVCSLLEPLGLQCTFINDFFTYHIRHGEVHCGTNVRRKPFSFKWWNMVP
SMILES,IC50 [1] [nM],IC50 [2] [nM]
"CCN1CCc2c(ccc3cc(-c4nc5cc(C(=O)N6C[C@H]7CC[C@@H]6[C@@H]7N)cc(F)c5n4C)n(CC4CC4)c23)C1 [Example 153, ((1R,4R,7R)-7-amino-2-azabicyclo[2.2.1]heptan-2-yl)(2-(1-(cyclopropylmethyl)-7-ethyl-6,7,8,9-tetrahydro-1H-pyrrolo[2,3-f]isoquinolin-2-yl)-7-fluoro-1-methyl-1H-benzo[d]imidazol-5-yl)methanone]",100 to 500,100 to 500
"Cn1c(-c2cc3ccc4cn[nH]c4c3n2CC2CC2)nc2cc(C(=O)N3C[C@H]4CC[C@@H]3[C@@H]4N)cc(F)c21 [Example 157, ((1R,4R,7R)-7-amino-2-azabicyclo[2.2.1]heptan-2-yl)(2-(8-(cyclopropylmethyl)-1,8-dihydropyrrolo[3,2-g]indazol-7-yl)-7-fluoro-1-methyl-1H-benzo[d]imidazol-5-yl)methanone]",≤ 100,≤ 100
"Cn1c(-c2cc3ccc4c(c3n2CC2CC2)NCCO4)nc2cc(C(=O)N3C[C@H]4CC[C@@H]3[C@@H]4N)cc(F)c21 [Example 158, ((1R,4R,7R)-7-amino-2-azabicyclo[2.2.1]heptan-2-yl)(2-(9-(cyclopropylmethyl)-1,2,3,9-tetrahydro-[1,4]oxazino[2,3-g]indol-8-yl)-7-fluoro-1-methyl-1H-benzo[d]imidazol-5-yl)methanone]",≤ 100,≤ 100
"Cn1c(-c2cc3ccc4c(c3n2CC2CC2)NCCS4)nc2cc(C(=O)N3C[C@H]4CC[C@@H]3[C@@H]4N)cc(F)c21 [Example 161, ((1R,4R,7R)-7-amino-2-azabicyclo[2.2.1]heptan-2-yl)(2-(9-(cyclopropylmethyl)-1,2,3,9-tetrahydro-[1,4]thiazino[2,3-g]indol-8-yl)-7-fluoro-1-methyl-1H-benzo[d]imidazol-5-yl)methanone]",≤ 100,≤ 100
"Cn1c(-c2cc3cccc4c3n2C(C2CCC2)CN4)nc2cc(C(=O)N3C[C@H]4CC[C@@H]3[C@@H]4N)cc(F)c21 (stereo partly drawn) [Example 164, ((1R,4R,7R)-7-amino-2-azabicyclo[2.2.1]heptan-2-yl)(2-(3-cyclobutyl-2,3-dihydro-1H-pyrrolo[1,2,3-de]quinoxalin-5-yl)-7-fluoro-1-methyl-1H-benzo[d]imidazol-5-yl)methanone]",100 to 500,≤ 100

# Further lines, results first:
IC50 [1] [nM],IC50 [2] [nM],SMILES
≤ 100,100 to 500,"Cn1c(-c2cc3ccc4c(c3n2CC2CC2)NCC4)nc2cc(C(=O)N3C[C@H]4CC[C@@H]3[C@@H]4N)cc(F)c21 [Example 147, ((1R,4R,7R)-7-amino-2-azabicyclo[2.2.1]heptan-2-yl)(2-(1-(cyclopropylmethyl)-1,6,7,8-tetrahydropyrrolo[3,2-g]indol-2-yl)-7-fluoro-1-methyl-1H-benzo[d]imidazol-5-yl)methanone]"
≤ 100,≤ 100,"Cn1c(-c2cc3ccc4cc[nH]c4c3n2CC2CC2)nc2cc(C(=O)N3C[C@H]4CC[C@@H]3[C@@H]4N)cc(F)c21 [Example 148, ((1R,4R,7R)-7-amino-2-azabicyclo[2.2.1]heptan-2-yl)(2-(1-(cyclopropylmethyl)-1,8-dihydropyrrolo[3,2-g]indol-2-yl)-7-fluoro-1-methyl-1H-benzo[d]imidazol-5-yl)methanone]"
≤ 100,≤ 100,"CC(=O)N1CCc2c(ccc3cc(-c4nc5cc(C(=O)N6C[C@H]7CC[C@@H]6[C@@H]7N)cc(F)c5n4C)n(CC4CC4)c23)C1 [Example 156, 1-(2-(5-((1R,4R,7R)-7-amino-2-azabicyclo[2.2.1]heptane-2-carbonyl)-7-fluoro-1-methyl-1H-benzo[d]imidazol-2-yl)-1-(cyclopropylmethyl)-1,6,8,9-tetrahydro-7H-pyrrolo[2,3-f]isoquinolin-7-yl)ethan-1-one]"

# — patent US20250136607A1 (REGOR PHARMACEUTICALS, INC., priority 2021, published 2025)
